Values of other authors as cited in patent US5908764A, “Methods and compositions for increasing production of erythromycin” (Solidago AG, priority 1997, dated 1999).

Columns and labels:
[1] = target: Vitreoscilla hemoglobin (VHb) (Vitreoscilla stercoraria, UniProt P04252); details: koff rate for oxygen; Orii and Webster, 1986
horse heart myoglobin = horse heart myoglobin (Equus caballus, UniProt P68082); details: oxygen affinity; Wittenberg et al., 1985
Chain of horse heart myoglobin (P68082 whole entry): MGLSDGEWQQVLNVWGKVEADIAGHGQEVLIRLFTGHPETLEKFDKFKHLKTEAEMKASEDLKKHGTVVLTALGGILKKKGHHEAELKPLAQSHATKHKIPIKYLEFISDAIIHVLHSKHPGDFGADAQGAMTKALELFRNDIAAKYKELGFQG

In the case of `O=O` [oxygen], the koff [1] is listed as 5600 s⁻¹ and the Kd (horse heart myoglobin) is listed as 790 nM.
